Results from patent US11945779B2, “Inhibitors of cancer metastasis through inhibiting migration and invasion of cancer cells” (VSpharmtech, priority 2018, dated 2024).

Experiments:
[1] = tested on: prostate cancer cell line DU145; assay: Trans-well cancer cell migration inhibition, DU145; type: cell-based; conditions: Homo sapiens, DU-145; Prostate cancer cell DU145; read-out: Concentration inhibiting migration of cancer cells by 50% (IC50 value)
Description: (§1) In order to analyze cancer cell migration inhibitory activity of CG-608, CG-609 or CG-618 prepared in Examples 1, 2, or 9, cell migration inhibitory activity was measured using a trans-well by targeting a colon cancer cell line DLD-1 (ATCC-CCL-221), pancreatic cancer cell lines AsPc-1 (ATCC-CCL-1682). CFPAC-1 (ATCC-CCL-1918). Panc-1 (ATCC-CCL-1469), and Miapaca-2 (ATCC-CCL-1420), a skin cancer cell line A375-P (ATCC-CCL-3224), lung cancer cell lines HCC-827 (ATCC-CCL-2868), A549 (ATCC-CCL-185), and NCI-H460 (ATCC-CCL-177), a prostate cancer cell line DU145 (ATCC-HTB-81), a stomach cancer cell line NuGC-3 (JCRB0822), and an ovarian cancer cell line SKOV-3 (ATCC-HTB-77).
(§2) First, the number of DLD-1 cells was measured using a hemocytometer in an RPMI medium without FBS. Thereafter, the trans-well was placed on a 24-well plate and 8×10^4 […] of cells were added. In an empty space with the trans-well on the well plate, […] of an RPM medium having 10% FBS containing CG-608, CG-609, or CG-618 was added and cultured in a CO2 incubator at 37° C. for 16 hours. After culture, […] of crystal violet (5 mg/mL of 20% […] was added to each well of the 24-well plate and the trans-well was dyed at room temperature for 30 minutes. The dyed trans-well was washed with PBS and non-migrated cells were wiped off with cotton swabs. The prepared sample was photographed with an inverted microscope mounted with a digital camera (TE 300, Nikon. Japan) and then the number of migrated cells was counted. The degree of inhibiting cell migration was calculated by Equation 1 for a group treated with the sample compared to a control group (DMSO).
(§3) In Equation 1, ‘the number of migrated cells treated with sample’ refers to the number of migrated cells measured by treating CG-608 or CG-618 of Example 1, and ‘the number of migrated cells of a control sample’ refers to the number of migrated cells measured by treating only 1% dimethyl sulfoxide (DMSO) instead of the compound.

[2] = tested on: colon cancer cell line DLD-1; assay: Trans-well cancer cell migration inhibition, DLD-1; type: cell-based, human; conditions: Homo sapiens; Colon cancer cell DLD-1, trans-well, 16 hours; read-out: Concentration inhibiting migration of cancer cells by 50% (IC50 value)
Description: as §1, §2, §3

[3] = tested on: stomach cancer cell line NuGC-3; assay: Trans-well cancer cell migration inhibition, NuGC-3; type: cell-based; conditions: Homo sapiens; Gastric cancer cell NuGC-3; read-out: Concentration inhibiting migration of cancer cells by 50% (IC50 value)
Description: as §1, §2, §3

[4] = tested on: skin cancer cell line A375-P; assay: Trans-well cancer cell migration inhibition, A375-P; type: cell-based; conditions: Homo sapiens, A375P; Skin cancer cell A375-P; read-out: Concentration inhibiting migration of cancer cells by 50% (IC50 value)
Description: as §1, §2, §3

[5] = tested on: lung cancer cell line HCC-827; assay: Trans-well cancer cell migration inhibition, HCC-827; type: cell-based; conditions: Homo sapiens, HCC827; Lung cancer cell HCC-827; read-out: Concentration inhibiting migration of cancer cells by 50% (IC50 value)
Description: as §1, §2, §3

[6] = Acute toxicity test for oral administration to rats; conditions: rat, in vivo, 1000 mg/kg; SD rats, single oral dose; read-out: Minimum dose (LD50) of oral administration
Description: Six-week-old specific pathogen free (SPF) SD-based rats were divided by two per group and then CG-608, CG-609, or CG-618 prepared in Example 1, 2, or 9 was dissolved in distilled water for injection and orally administered to rats once in a dose of 1000 mg/kg.

[7] = tested on: pancreatic cancer cell line AsPc-1; assay: Trans-well cancer cell migration inhibition, AsPc-1; type: cell-based; conditions: Homo sapiens, ASPC1; Pancreatic cancer cell line AsPc-1; read-out: Concentration inhibiting migration of cancer cells by 50% (IC50 value)
Description: as §1, §2, §3

[8] = tested on: colon cancer cells DLD-1; assay: Cancer cell invasion inhibition (Matrigel trans-well), DLD-1; type: cell-based; conditions: Homo sapiens, DLD-1; 5 μM
Description: In order to analyze cancer cell invasion inhibitory activity of CG-609 or CG-618 prepared in Example 1 or 9, cell invasion inhibitory activity using a trans-well was measured by targeting colon cancer cell line DLD-1 cells or pancreatic cancer cell line AsPc-1 cells.
Matrigel was diluted by 1/5 using an RPMI medium without FBS and then […] was put into each trans-well. The cells were coated in a […] for 2 hours. The number of DLD-1 cells was measured using a hemocytometer in an RPMI medium without FBS. Thereafter, the coated trans-well was placed on a 24-well plate and 8×10^4 […] of cells were added. In an empty space of the trans-well on the well plate, […] of an RPMI medium having 10% FBS containing (S)-(−)-benproperine was added and cultured in a CO2 incubator at 37° C. for 16 hours. After culture, […] of crystal violet (5 mg/mL of 20% MeOH) was added to each well of the 24-well plate and the trans-well was dyed at room temperature for 30 minutes. The dyed trans-well was washed with PBS and non-migrated cells were wiped off with cotton swabs. The prepared sample was photographed with an inverted microscope mounted with a digital camera (TE 300, Nikon, Japan), and then the number of migrated cells was counted. The degree of inhibiting cell migration was calculated for a group treated with the sample compared to a control group (DMSO).

Compound	IC50 [1]	IC50 [2]	IC50 [3]	IC50 [4]	IC50 [5]	LD50 [6]	IC50 [7]	inhibition at 5 µM [8]
CC1CCCCN1[C@@H](C)COc1ccccc1Cc1ccccc1 (stereo partly drawn) [CG-608, 1-((S)-1-(2-benzylphenoxy)propan-2-yl)-2-methylpiperidine]	5000 nM	200 nM	2000 nM	1500 nM	1500 nM	≥ 1000 mg/kg	250 nM	–
CC(COc1ccccc1Cc1ccccc1)N1CCCCC1 (centres unmarked) [benproperine, reference compound]	20000 nM	2000 nM	< 20000 nM	7000 nM	20000 nM	–	3000 nM	50%
